# From US12161722B2, “Bifunctional heterocyclic compound having BTK degradation function via ubiquitin proteasome pathway, and use thereof” (KOREA RESEARCH INSTITUTE OF CHEMICAL TECHNOLOGY, priority 2021, dated 2024)
# Target: T1, WT BTK protein (Homo sapiens, UniProt Q06187)
# T1 construct: measured for intracellular BTK protein levels by Western blotting; endogenous in cells; host or cells: TMD-8 or RAMOS cells
# Assay: BTK protein degradation assay (Western blotting), WT BTK
# Format: cell-based
# Settings: concentration range accounting for 50% degradation of WT BTK protein, TMD-8 or RAMOS cells, 24 hours
# Method in brief: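 TMD-8 cells (1×10^6 cells/mL) treated 24 h with compound serial dilutions, then lysed in RIPA. Equal protein loads analysed by Western blot for BTK with GAPDH/β-actin as loading controls; activity binned by concentration giving 50% WT BTK degradation.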
# T1 sequence (Q06187 whole entry): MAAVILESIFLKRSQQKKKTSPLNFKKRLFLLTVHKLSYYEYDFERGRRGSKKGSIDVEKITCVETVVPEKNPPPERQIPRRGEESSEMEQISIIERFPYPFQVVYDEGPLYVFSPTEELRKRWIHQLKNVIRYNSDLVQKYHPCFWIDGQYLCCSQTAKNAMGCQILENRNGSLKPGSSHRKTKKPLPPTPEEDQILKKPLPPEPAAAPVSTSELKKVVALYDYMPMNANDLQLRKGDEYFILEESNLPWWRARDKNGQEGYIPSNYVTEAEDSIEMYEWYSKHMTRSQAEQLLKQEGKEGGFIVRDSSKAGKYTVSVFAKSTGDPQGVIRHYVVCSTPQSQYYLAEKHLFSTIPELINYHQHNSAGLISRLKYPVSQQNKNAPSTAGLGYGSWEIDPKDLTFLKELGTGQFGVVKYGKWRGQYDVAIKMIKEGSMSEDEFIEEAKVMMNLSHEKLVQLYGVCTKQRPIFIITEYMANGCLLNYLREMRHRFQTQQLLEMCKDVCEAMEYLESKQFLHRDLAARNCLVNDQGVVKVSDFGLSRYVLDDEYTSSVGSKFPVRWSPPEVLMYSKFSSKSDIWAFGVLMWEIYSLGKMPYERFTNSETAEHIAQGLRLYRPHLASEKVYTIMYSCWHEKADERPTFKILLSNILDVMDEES
row,Compound,DC50 [nM]
1,"Cc1cccc(C)c1Nc1nn(C)c2nc(Nc3ccc(C4CCN(C(=O)C5(F)CCN(c6cc7c(cc6F)C(=O)N(C6CCC(=O)NC6=O)C7=O)CC5)CC4)cc3)ncc12 (centres unmarked) [Compound 254, 5-(4-(4-(4-((3-((2,6-dimethylphenyl)amino)-1-methyl-1H-pyrazolo[3,4-d]pyrimidin-6-yl)amino)phenyl)piperidine-1-carbonyl)-4-fluoropiperidin-1-yl)-2-(2,6-dioxopiperidin-3-yl)-6-fluoroisoindoline-1,3-dione]",10 to 1000
2,"Cc1cc(F)ccc1Nc1nn(C)c2nc(Nc3ccc4c(c3)CN(CC3CCN(c5ccc6c(c5)C(=O)N(C5CCC(=O)NC5=O)C6=O)CC3)CC4)ncc12 (centres unmarked) [Compound 121, 2-(2,6-Dioxopiperidin-3-yl)-5-(4-((7-((3-((4-fluoro-2-methylphenyl)amino)-1-methyl-1H-pyrazolo[3,4-d]pyrimidin-6-yl)amino)-3,4-dihydroisoquinolin-2 (1H)-yl)methyl)piperidin-1-yl)isoindoline-1,3-dione]",10 to 1000
3,"Cc1cccc(C)c1Nc1nn(C)c2nc(Nc3ccc(CCNC(=O)C4CCN(CC(=O)Nc5ccc6c(c5)C(=O)N(C5CCC(=O)NC5=O)C6=O)CC4)cc3)ncc12 (centres unmarked) [Compound 101, N-(4-((3-((2,6-dimethylphenyl)amino)-1-methyl-1H-pyrazolo[3,4-d]pyrimidin-6-yl)amino)phenethyl)-1-(2-((2-(2,6-dioxopiperidin-3-yl)-1,3-dioxoisoindolin-5-yl)amino)-2-oxoethyl)piperidine-4-carboxamide]",10 to 1000
4,"Cc1cccc(C)c1Nc1nn(C)c2nc(Nc3ccc4c(c3)CN(C(=O)[C@@H]3CCCN3C(=O)COc3ccc5c(c3)C(=O)N(C3CCC(=O)NC3=O)C5=O)CC4)ncc12 (stereo partly drawn) [Compound 34, 5-(2-((S)-2-(7-((3-((2,6-Dimethylphenyl)amino)-1-methyl-1H-pyrazolo[3,4-d]pyrimidin-6-yl)amino)-1,2,3,4-tetrahydroisoquinoline-2-carbonyl)pyrrolidin-1-yl)-2-oxoethoxy)-2-(2,6-dioxopiperidin-3-yl)isoindoline-1,3-dione]",10 to 1000
5,"Cc1cccc(C)c1Nc1nn(C)c2nc(Nc3ccc4c(c3)CN(C3CN(C[C@@H]5CCN(c6ccc7c(c6)C(=O)N(C6CCC(=O)NC6=O)C7=O)C5)C3)CC4)ncc12 (stereo partly drawn) [Compound 151, 5-((S)-3-((3-(7-((3-((2,6-Dimethylphenyl)amino)-1-methyl-1H-pyrazolo[3,4-d]pyrimidin-6-yl)amino)-3,4-dihydroisoquinolin-2 (1H)-yl)azetidin-1-yl)methyl)pyrrolidin-1-yl)-2-(2,6-dioxopiperidin-3-yl)isoindoline-1,3-dione]",0.1 to 10
6,"Cc1cccc(C)c1Nc1nn(C)c2nc(Nc3ccc4c(c3)CN(CC3CCN(c5cc6c(cc5F)C(=O)N(C5CCC(=O)NC5=O)C6=O)CC3)CC4)ncc12 (centres unmarked) [Compound 208, 5-(4-((7-((3-((2,6-Dimethylphenyl)amino)-1-methyl-1H-pyrazolo[3,4-d]pyrimidin-6-yl)amino)-3,4-dihydroisoquinolin-2 (1H)-yl)methyl)piperidin-1-yl)-2-(2,6-dioxopiperidin-3-yl)-6-fluoroisoindoline-1,3-dione]",0.1 to 10
7,"Cc1cccc(C)c1Nc1nn(C)c2nc(Nc3ccc(N4CCN(CC5CCN(c6ccc7c(c6)C(=O)N(C6CCC(=O)NC6=O)C7=O)CC5)CC4)cc3)ncc12 (centres unmarked) [Compound 163, 5-(4-((4-(4-((3-((2,6-Dimethylphenyl)amino)-1-methyl-1H-pyrazolo[3,4-d]pyrimidin-6-yl)amino)phenyl)piperazin-1-yl)methyl)piperidin-1-yl)-2-(2,6-dioxopiperidin-3-yl)isoindoline-1,3-dione]",0.1 to 10
8,"Cc1cccc(C)c1Nc1nn(C)c2nc(Nc3ccc(C4CCN(C5CCN(c6ccc7c(c6)C(=O)N(C6CCC(=O)NC6=O)C7=O)CC5)CC4)cc3)ncc12 (centres unmarked) [Compound 168, 5-(4-(4-((3-((2,6-Dimethylphenyl)amino)-1-methyl-1H-pyrazolo[3,4-d]pyrimidin-6-yl)amino)phenyl)-[1,4′-bipyridin]-1′-yl)-2-(2,6-dioxopiperidin-3-yl)isoindoline-1,3-dione]",0.1 to 10
9,"Cc1cccc(C)c1Nc1nn(C)c2nc(Nc3ccc(CCNC(=O)C4CCN(C(=O)Nc5ccc6c(c5)CN(C5CCC(=O)NC5=O)C6=O)CC4)cc3)ncc12 (centres unmarked) [Compound 102, N4-(4-((3-((2,6-Dimethylphenyl)amino)-1-methyl-1H-pyrazolo[3,4-d]pyrimidin-6-yl)amino)phenethyl)-N1-(2-(2,6-dioxopiperidin-3-yl)-1-oxoisoindolin-5-yl)piperidine-1,4-dicarboxamide]",10 to 1000
10,"Cc1cccc(C)c1Nc1nn(C)c2nc(Nc3ccc4c(c3)CN(C(=O)C3CCN(C(=O)CNc5ccc6c(=O)n(C7CCC(=O)NC7=O)nnc6c5)CC3)CC4)ncc12 (centres unmarked) [Compound 68, 3-(7-((2-(4-(7-((3-((2,6-Dimethylphenyl)amino)-1-methyl-1H-pyrazolo[3,4-d]pyrimidin-6-yl)amino)-1,2,3,4-tetrahydroisoquinoline-2-carbonyl)piperidin-1-yl)-2-oxoethyl)amino)-4-oxobenzo[d][1,2,3]triazin-3 (4H)-yl)piperidin-2,6-one]",10 to 1000
11,"Cc1cccc(C)c1Nc1nn(C)c2nc(Nc3ccc4c(c3)CN(CC(=O)NCc3ccc5c(c3)CN(C3CCC(=O)NC3=O)C5=O)CC4)ncc12 (centres unmarked) [Compound 94, 2-(7-((3-((2,6-dimethylphenyl)amino)-1-methyl-1H-pyrazolo[3,4-d]pyrimidin-6-yl)amino)-3,4-dihydroisoquinolin-2 (1H)-yl)-N-((2-(2,6-dioxopiperidin-3-yl)-1-oxoisoindolin-5-yl)methyl)acetamide]",10 to 1000
12,"Cc1cccc(C)c1Nc1nn(C)c2nc(Nc3ccc4c(c3)CN(C(=O)C3CCN(c5ccc6c(c5)n(C)c(=O)n6C5CCC(=O)NC5=O)CC3)CC4)ncc12 (centres unmarked) [Compound 264, 3-(5-(4-(7-((3-((2,6-Dimethylphenyl)amino)-1-methyl-1H-pyrazolo[3,4-d]pyrimidin-6-yl)amino)-1,2,3,4-tetrahydroisoquinoline-2-carbonyl)piperidin-1-yl)-3-methyl-2-oxo-2,3-dihydro-1H-benzo[d]imidazol-1-yl)piperidin-2,6-one]",0.1 to 10

# Continued, values first:
row,DC50 [nM],Compound
1,0.1 to 10,"Cc1cccc(C)c1Nc1nn(C)c2nc(Nc3cnc(N4CCN(CC5CCN(c6ccc7c(c6)C(=O)N(C6CCC(=O)NC6=O)C7=O)CC5)CC4)nc3)ncc12 (centres unmarked) [Compound 171, 5-(4-((4-(5-((3-((2,6-Dimethylphenyl)amino)-1-methyl-1H-pyrazolo[3,4-d]pyrimidin-6-yl)amino)pyrimidin-2-yl)piperazin-1-yl)methyl)piperidin-1-yl)-2-(2,6-dioxopiperidin-3-yl)isoindoline-1,3-dione]"
2,0.1 to 10,"Cc1cccc(C)c1Nc1nn(C)c2nc(Nc3ccc(CCNC(=O)C4CCN(c5ccc6c(c5)C(=O)N(C5CCC(=O)NC5=O)C6=O)CC4)cc3)ncc12 (centres unmarked) [Compound 100, N-(4-((3-((2,6-dimethylphenyl)amino)-1-methyl-1H-pyrazolo[3,4-d]pyrimidin-6-yl)amino)phenethyl)-1-(2-(2,6-dioxopiperidin-3-yl)-1,3-dioxoisoindolin-5-yl)piperidine-4-carboxamide]"
3,0.1 to 10,"Cc1cccc(C)c1Nc1nn(C)c2nc(Nc3ccc(N4CCN(C5CCN(c6ccc7c(c6)C(=O)N(C6CCC(=O)NC6=O)C7=O)CC5)CC4)nc3)ncc12 (centres unmarked) [Compound 156, 5-(4-(4-(5-((3-((2,6-dimethylphenyl)amino)-1-methyl-1H-pyrazolo[3,4-d]pyrimidin-6-yl)amino)pyridin-2-yl)piperazin-1-yl)piperidin-1-yl)-2-(2,6-dioxopiperidin-3-yl)isoindoline-1,3-dione]"
4,0.1 to 10,"Cc1cccc(C)c1Nc1nn(C)c2nc(Nc3ccc4c(c3)CN(C3CCN(CC5CN(c6ccc7c(c6)C(=O)N(C6CCC(=O)NC6=O)C7=O)C5)CC3)CC4)ncc12 (centres unmarked) [Compound 138, 5-(3-((4-(7-((3-((2,6-Dimethylphenyl)amino)-1-methyl-1H-pyrazolo[3,4-d]pyrimidin-6-yl)amino)-3,4-dihydroisoquinolin-2 (1H)-yl)piperidin-1-yl)methyl)azetidin-1-yl)-2-(2,6-dioxopiperidin-3-yl)isoindoline-1,3-dione]"
5,0.1 to 10,"Cc1cccc(C)c1Nc1nn(C)c2nc(Nc3ccc4c(c3)CN(CC3CCN(C(=O)COc5ccc6nnn(C7CCC(=O)NC7=O)c(=O)c6c5)CC3)CC4)ncc12 (centres unmarked) [Compound 48, 3-(6-(2-(4-((7-((3-((2,6-Dimethylphenyl)amino)-1-methyl-1H-pyrazolo[3,4-d]pyrimidin-6-yl)amino)-3,4-dihydroisoquinolin-2 (1H)-yl)methyl)piperidin-1-yl)-2-oxoethoxy)-4-oxobenzo[d][1,2,3]triazin-3 (4H)-yl)piperidin-2,6-one]"
6,0.1 to 10,"Cc1cccc(C)c1Nc1nn(C)c2nc(Nc3ccc(C4CN(C[C@H]5CCN(c6ccc7c(c6)C(=O)N(C6CCC(=O)NC6=O)C7=O)C5)C4)cc3)ncc12 (stereo partly drawn) [Compound 176, 5-((R)-3-((3-(4-((3-((2,6-dimethylphenyl)amino)-1-methyl-1H-pyrazolo[3,4-d]pyrimidin-6-yl)amino)phenyl)azetidin-1-yl)methyl)pyrrolidin-1-yl)-2-(2,6-dioxopiperidin-3-yl)isoindoline-1,3-dione]"
7,0.1 to 10,"Cc1cccc(C)c1Nc1nn(C)c2nc(Nc3ccc(N4CCN(c5ccc6c(c5)C(=O)N(C5CCC(=O)NC5=O)C6=O)CC4)cc3)ncc12 (centres unmarked) [Compound 238, 5-(4-(4-((3-((2,6-dimethylphenyl)amino)-1-methyl-1H-pyrazolo[3,4-d]pyrimidin-6-yl)amino)phenyl)piperazin-1-yl)-2-(2,6-dioxopiperidin-3-yl)isoindoline-1,3-dione]"
8,0.1 to 10,"Cc1cccc(C)c1Nc1nn(C)c2nc(Nc3ccc4c(c3)CN(C(=O)CNc3ccc5c(c3)CN(C3CCC(=O)NC3=O)C5=O)CC4)ncc12 (centres unmarked) [Compound 81, 3-(5-((2-(7-((3-((2,6-Dimethylphenyl)amino)-1-methyl-1H-pyrazolo[3,4-d]pyrimidin-6-yl)amino)-3,4-dihydroisoquinolin-2 (1H)-yl)-2-oxoethyl)amino)-1-oxoisoindolin-2-yl)piperidin-2,6-one]"
